Data: patent publication US6583125B2 (priority 1992, dated 2003)
Like-named read-outs stand apart in the source and are kept apart here. *1 amine or outer side, *2 acyl side, *3 side chain or, on linkers, in order; H or OH if unused. Where a SMILES comes first, the peptide text is derived from it. Bridges are numbered along the chain shown (N, C = ends). Roman numbers before positions name the chains, in order. [ ]: non-standard residue; d: D form. Actinocin(9to1) = Cc1c2oc3c(C)ccc(C(=O)[*:1])c3nc-2c(C(=O)[*:2])c(N)c1=O; NMeV = CN[C@H](C(=O)O)C(C)C; Sar = CNCC(=O)O

Experiments:
[1] = human, in vivo; cited from earlier work
[2] = rat, in vivo
rats [3] = settings: rat, in vivo
rats [4] = settings: rat, in vivo; remark: listed apart in the source
[5] = rat, in vivo; remark: listed apart in the source
rats [6] = settings: rat, in vivo; remark: listed apart in the source
[7] = male, Charles Rivers CD (Sprague-Dawley)

Compound: COc1cccc2c1C(=O)c1c(O)c3c(c(O)c1C2=O)C[C@@](O)(C(C)=O)C[C@@H]3O[C@H]1C[C@H](N)[C@H](O)[C@H](C)O1 [daunorubicin]
- Frequency of Phlebitis [1]: Frequent

Compound: COc1cc([C@@H]2c3cc4c(cc3[C@@H](O[C@@H]3O[C@@H]5CO[C@@H](c6cccs6)O[C@H]5[C@H](O)[C@H]3O)[C@H]3COC(=O)[C@H]23)OCO4)cc(OC)c1O [Tenoposide]
- Frequency of Phlebitis [1]: Frequent

Compound: CC(=O)[C@]1(O)Cc2c(O)c3c(c(O)c2[C@@H](O[C@H]2C[C@H](N)[C@H](O)[C@H](C)O2)C1)C(=O)c1ccccc1C3=O [Idarubicin]
- Frequency of Phlebitis [1]: Frequent

Compound: CN(C)/N=N/c1[nH]cnc1C(N)=O [dacarbazine]
- Acute Local tissue Effects (infiltration) [1]: Pain, mild inflammation,
- Frequency of Phlebitis [1]: Frequent

Compound: CC[C@]1(O)C[C@H]2CN(CCc3c([nH]c4ccccc34)[C@@](C(=O)OC)(c3cc4c(cc3OC)N(C=O)[C@H]3[C@@](O)(C(=O)OC)[C@H](OC(C)=O)[C@]5(CC)C=CCN6CC[C@]43[C@@H]65)C2)C1 [Vincristine, 22-Oxoyincaleukoblastine]
- Frequency of Phlebitis [1]: Infrequent

Compound: CO[C@@]12[C@H](COC(N)=O)C3=C(C(=O)C(C)=C(N)C3=O)N1C[C@@H]1N[C@@H]12 [mitomycin-c]
- rats died ([2]; male): Five of 12
- loss of initial body weight [2]: about 25%

Compound: Cc1c2oc3c(C)ccc(C(=O)N[C@@H]4C(=O)N[C@H](C(C)C)C(=O)N5CCC[C@H]5C(=O)N(C)CC(=O)N(C)[C@@H](C(C)C)C(=O)O[C@@H]4C)c3nc-2c(C(=O)N[C@@H]2C(=O)N[C@H](C(C)C)C(=O)N3CCC[C@H]3C(=O)N(C)CC(=O)N(C)[C@@H](C(C)C)C(=O)O[C@@H]2C)c(N)c1=O [dactinomycin] (I: T[dV]P[Sar][NMeV] / II: T[dV]P[Sar][NMeV]; ester I:1-I:C, II:1-II:C; linker I:N-II:N via Actinocin(9to1))
- Frequency of Phlebitis [1]: Frequent

Compound: CC(=O)O[C@H]1C(=O)[C@@]2(C)[C@H]([C@H](OC(=O)c3ccccc3)[C@]3(O)C[C@H](OC(=O)[C@H](O)[C@@H](NC(=O)c4ccccc4)c4ccccc4)C(C)=C1C3(C)C)[C@]1(OC(C)=O)CO[C@@H]1C[C@@H]2O [Taxol CV, Taxol]
- rats with lesions (rats [3]; male, Charles Rivers CD): all 8

Compound: COc1cccc2c1C(=O)c1c(O)c3c(c(O)c1C2=O)C[C@@](O)(C(=O)CO)C[C@@H]3O[C@H]1C[C@H](N)[C@H](O)[C@H](C)O1 [Doxorubicin, 10-[(3-amino-2,3,6-tri-deoxy-α-L-lyxo-hexopyransoyl)oxy]-7,8,9,10-tetrahydro-6,8,-11-trihydroxy-8-(hydroxyacetyl)-1-methyoxy-5,12-naphthacenedione]
- Frequency of Phlebitis [1]: Frequent
- rats with lesions (rats [4]; [7]): all 8
- rats with necrotic lesions of the skin (rats [4]; [7]): all 8
- effect on body weight [5]: no adverse effect on body weight

Compound: CO[C@@H]1[C@H](O)C[C@@H](O[C@@H]2C[C@H](Oc3cc4cc5c(c(O)c4c(O)c3C)C(=O)[C@@H](O[C@H]3C[C@@H](O[C@H]4C[C@@H](O[C@H]6C[C@](C)(O)[C@@H](OC(C)=O)[C@H](C)O6)[C@H](O)[C@@H](C)O4)[C@H](O)[C@@H](C)O3)[C@H]([C@H](OC)C(=O)[C@@H](O)[C@@H](C)O)C5)O[C@H](C)[C@@H]2OC(C)=O)O[C@@H]1C [Chromomycin A3]
- Acute Local tissue Effects (infiltration) [1]: Sever tissue sloughing
- Frequency of Phlebitis [1]: Frequent

Compound: hydroxypropyl-β-cyclodextrin [HPCD]
- diameter of the lesion in the one remaining animal (rats [4]): 0.3 cm
- rats with no lesion at any sampling time (rats [4]): 7 of 8
- lesion size (rats [6]): 3.5 mm
- effect on body weight [5]: no effect on body weight
- lesions caused (rats [3]): no lesions

Compound: CN(N=O)C(=O)N[C@@H](C=O)[C@@H](O)[C@H](O)[C@H](O)CO [streptozocin]
- Frequency of Phlebitis [1]: Infrequent
